These results are taken from patent publication US20050101595A1, “N-containing cycloalkyl-substituted amino-thiazole derivatives and pharmaceutical compositions for inhibiting cell proliferation and methods for their use” (PFIZER INC., priority 2003, published 2005).

Structures are written as SMILES. Counter-ions that a name gives are not always drawn. Like-named read-outs stand apart in the source and are kept apart here.

The target of assay [1] is human CDK4 and genetically truncated (1-264) cyclin D3 (Homo sapiens, UniProt P11802). The experiment in a line: Inhibition of CDK4/Cyclin D Retinoblastoma Kinase Activity. Particulars: for Ki: apparent Ki, CDK4/truncated cyclin D3, Rb fragment substrate, 25 μM ATP. The assay is classed as biochemical. On the procedure: Cyclin-dependent kinase activity was measured by quantifying the enzyme-catalyzed, time-dependent incorporation of radioactive phosphate from [^32P]ATP or [^33P]ATP into a protein substrate. Unless noted otherwise, assays were performed in 96-well plates in a total volume of 50 μL, in the presence of 10 mM HEPES (N-[2-hydroxyethyl]piperazine-N′-[2-ethanesulfonic acid]) (pH 7.4), 10 mM MgCl2, 25 μM adenosine triphosphate (ATP), 1 mg/mL ovalbumin, 5 μg/mL leupeptin, 1 mM dithiothreitol, 10 mM β-glycerophosphate, 0.1 mM sodium vanadate, 1 mM sodium fluoride, 2.5 mM ethylene glycol-bis(β-aminoethyl ether)-N,N,N′N′-tetraacetic acid (EGTA), 2% (v/v) dimethylsulfoxide, and 0.03-0.4 μCi [^32/33P]ATP per reaction. Reactions were initiated with enzyme, incubated at 30° C., and terminated after 20 minutes by the addition of ethylenediaminetetraacetic acid (EDTA) to 250 mM. The phosphorylated substrate was then captured on a nitrocellulose or phosphocellulose membrane using a 96-well filtration manifold, and unincorporated radioactivity was removed by repeated washing with 0.85% phosphoric acid. Radioactivity was quantified by exposing the dried membranes to a phosphorimager.
Chain of human CDK4 and genetically truncated (1-264) cyclin D3 (P11802 whole entry, the tested form may be a part): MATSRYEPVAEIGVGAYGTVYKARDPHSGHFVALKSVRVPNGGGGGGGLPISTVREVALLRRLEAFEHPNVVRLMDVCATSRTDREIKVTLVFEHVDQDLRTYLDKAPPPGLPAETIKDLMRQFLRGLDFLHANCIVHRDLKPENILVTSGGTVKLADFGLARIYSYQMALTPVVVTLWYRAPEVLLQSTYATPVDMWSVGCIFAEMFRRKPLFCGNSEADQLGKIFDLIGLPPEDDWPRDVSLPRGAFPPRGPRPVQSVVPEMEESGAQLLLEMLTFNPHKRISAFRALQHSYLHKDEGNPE
Chain of human CDK4 and genetically truncated (1-264) cyclin D3 (P30281 1-264 partner): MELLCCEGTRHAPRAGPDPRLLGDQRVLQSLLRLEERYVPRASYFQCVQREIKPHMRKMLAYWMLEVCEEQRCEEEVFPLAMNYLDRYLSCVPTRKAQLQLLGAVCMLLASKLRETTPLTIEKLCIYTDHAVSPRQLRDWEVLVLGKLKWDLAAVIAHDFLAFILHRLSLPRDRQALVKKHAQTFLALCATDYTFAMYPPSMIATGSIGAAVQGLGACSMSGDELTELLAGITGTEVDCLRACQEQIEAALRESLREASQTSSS
Inhibition was measured relative to control wells that contained all reaction components including 2% (v/v) DMSO but no compound, after subtraction of background radioactivity measured in the absence of enzyme. Apparent Ki values of discrete compounds were measured by assaying enzyme activity in the presence of different inhibitor compound concentrations and subtracting the background radioactivity measured in the absence of enzyme. The kinetic parameters (kcat, Km for ATP) were measured for each enzyme under the usual assay conditions by determining the dependence of initial rates on ATP concentration. Inhibition data were fit to an equation for competitive inhibition using Kaleidagraph (Synergy Software), or were fit to an equation for competitive tight-binding inhibition using the software KineTic (BioKin, Ltd.).
Inhibition of CDK4/Cyclin D Retinoblastoma Kinase Activity:
A complex of human CDK4 and genetically truncated (1-264) cyclin D3 was purified using traditional biochemical chromatographic techniques from insect cells that had been co-infected with the corresponding baculovirus expression vectors (see e.g., Meijer and Kim, “Chemical Inhibitors of Cyclin-Dependent Kinases,” Methods in Enzymol,. vol. 283 (1997), pp. 113-128.). The enzyme complex (5 nM) was assayed with 0.3-0.5 μg of purified recombinant retinoblastoma protein fragment (Rb) as a substrate. The engineered Rb fragment (residues 386-928 of the native retinoblastoma protein; 62.3 kDa) contains the majority of the phosphorylation sites found in the native 106-kDa protein, as well as a tag of six histidine residues for ease of purification. Phosphorylated Rb substrate was captured by microfiltration on a nitrocellulose membrane and quantified using a phosphorimager as described above. For measurement of tight-binding inhibitors, the assay duration was extended to 60 minutes, during which the time-dependence of product formation was linear and initial rate conditions were met.

The target in assay [2] is CDK2/Cyclin A (Homo sapiens, UniProt P24941). The experiment in a line: Inhibition of CDK2/Cyclin A Retinoblastoma Kinase Activity. Particulars: for Ki: apparent Ki, CDK2/proteolyzed cyclin A, Rb fragment substrate, 25 μM ATP. The assay is classed as biochemical. A digest of the protocol:
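CDK2 (10 or 19 nM), insect-cell expressed, gel-filtration purified with truncated cyclin A; Rb fragment substrate; 25 μM ATP; 10 mM HEPES pH 7.4, 10 mM MgCl2; 30° C, 60 or 75 min; EDTA stop; phosphocellulose/nitrocellulose capture, phosphorimager. % inhibition vs DMSO control, no-enzyme background subtracted.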

Assay [3] deals with HCT-116 cell line. The experiment in a line: Inhibition of cell growth, tetrazolium salt (MTT) assay. The assay is classed as cell-based. To be noted: for HCT-116 % Inhibition at 0.25 μM: 0.25 μM compound; for IC50: Homo sapiens, HCT-116, 120 h, MTT, three to five days, read-out: HCT-116 IC50. The procedure, abridged: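 Growth inhibition is scored relative to cells receiving only 0.5% (v/v) DMSO. Plated cells rest 4 h, then take compound for three to five days at 37° C; MTT reduction to formazan is read at 540 nm.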

The mark [4] stands for this setting: 0.1 μM compound, HCT-116, Table 4.

Turning to `CCCCOc1ccc(C(=O)N2CCC(Nc3nc(N)c(C(=O)c4c(F)cccc4F)s3)CC2)cc1` [Example Q29], the “CDK4 % Inhibition at 0.03 μM” value in assay [1] (0.03 μM compound, Table 4) is given as 60%. The “CDK2 % Inhibition at 0.03 μM” value in assay [2] (0.03 μM compound, Table 4) came to 21%. For the same compound, the “HCT-116 % Inhibition at 0.1 μM” value in assay [3] (setting [4]) amounted to 7%. In assay [3] (HCT-116, Table 4), the “HCT-116 % Inhibition at 0.25 μM” value was 50%.
Usually IC50 stands for the point on the concentration scale where inhibition reaches its midpoint. In the case of `CN(C)CCOc1ccc(S(=O)(=O)N2CCC(Nc3nc(N)c(C(=O)c4c(Cl)cccc4Cl)s3)CC2)cn1` [Example H17, 1-(4-Amino-2-{1-[6-(2-dimethylamino-ethoxy)-pyridine-3-sulfonyl]-piperidin-4-ylamino}-thiazol-5-yl)-1-(2,6-dichloro-phenyl)-methanone Hydrochloride Salt], the Ki in assay [1] came to 1.7 nM; in assay [2] it was 1.8 nM. Also, the half-inhibitory concentration (IC50) in assay [3] (first HCT-116 column (c4)) is 50 nM; in assay [3] (second HCT-116 column (c5)), 170 nM.
For `CC(C(=O)N1CCC(Nc2nc(N)c(C(=O)c3c(F)cccc3F)s2)CC1)c1ccccc1` (stereo not shown) [Example R160], in assay [1] (at 0.03 μM), the “CDK4 % Inhibition at 0.03 μM” value is listed as 6%. The “CDK2 % Inhibition at 0.03 μM” value in assay [2] (at 0.03 μM) is listed as 7%. For the same compound, the “HCT-116 % Inhibition at 0.1 μM” value in assay [3] (HCT-116 cells, at 0.1 μM) came to 0%. In addition, the “HCT-116 5 Inhibition at 0.25 μM” value in assay [3] (HCT-116 cells) is reported as 37.
The like results for `Nc1nc(NC2CCN(C(=O)c3cccnc3Sc3ccccc3)CC2)sc1C(=O)c1c(F)cccc1F` [Example R41] were, in that order, 32%, 24%, 0% and 41.
The like results for `Cc1oc(-c2ccccc2)cc1C(=O)N1CCC(Nc2nc(N)c(C(=O)c3c(F)cccc3F)s2)CC1` [Example R77] were, in that order, 15%, 19%, 0% and 44.
Turning to `Nc1nc(NC2CCN(C(=O)c3c(F)cccc3F)CC2)sc1C(=O)c1c(F)cccc1F` [Example Q12], the “CDK4 % Inhibition at 0.03 μM” value in assay [1] (0.03 μM compound, Table 4) was 22%. Further, the “CDK2 % Inhibition at 0.03 μM” value in assay [2] (0.03 μM compound, Table 4) is on record as −20%. The “HCT-116 % Inhibition at 0.1 μM” value in assay [3] (setting [4]) is reported as 3%. The “HCT-116 % Inhibition at 0.25 μM” value in assay [3] (HCT-116, Table 4) was determined as 46%.
Turning to `COc1cc(OC)cc(C(=O)N2CCC(Nc3nc(N)c(C(=O)c4c(F)cccc4F)s3)CC2)c1` [Example R137], the “CDK4 % Inhibition at 0.03 μM” value in assay [1] (at 0.03 μM) is on record as 73%. Also, the “CDK2 % Inhibition at 0.03 μM” value in assay [2] (at 0.03 μM) worked out at 55%. Moreover, the “HCT-116 % Inhibition at 0.1 μM” value in assay [3] (HCT-116 cells, at 0.1 μM) worked out at 0%. In addition, the “HCT-116 5 Inhibition at 0.25 μM” value in assay [3] (HCT-116 cells) is 38.
`Nc1nc(NC2CCN(C(=O)c3ccno3)CC2)sc1C(=O)c1c(F)cccc1F` [Example C10, 1-{4-Amino-2-[1-(1-isoxazol-5-yl-methanoyl)-piperidin-4-ylamino]-thiazol-5-yl}1-(2,6-difluoro-phenyl)-methanone]: the Ki in assay [1] was 22 nM; in assay [2] it was 39 nM. Moreover, the results for the IC50 in assay [3] (first HCT-116 column (c4)) and in assay [3] (second HCT-116 column (c5)) were 750 nM and 2100 nM, respectively.
For `CCOC(=O)C(=O)N1CCC(Nc2nc(N)c(C(=O)c3c(F)cccc3F)s2)CC1` [Example Q39], in assay [1] (0.03 μM compound, Table 4), the “CDK4 % Inhibition at 0.03 μM” value is 17%. The “CDK2 % Inhibition at 0.03 μM” value in assay [2] (0.03 μM compound, Table 4) is reported as −13%. Moreover, in assay [3] (setting [4]), the “HCT-116 % Inhibition at 0.1 μM” value was determined as 0%. Moreover, the “HCT-116 % Inhibition at 0.25 μM” value in assay [3] (HCT-116, Table 4) worked out at 25%.
For `Cn1nc(C(C)(C)C)cc1C(=O)N1CCC(Nc2nc(N)c(C(=O)c3c(F)cccc3F)s2)CC1` [Example R60], in assay [1] (at 0.03 μM), the “CDK4 % Inhibition at 0.03 μM” value is listed as 69%. For the same compound, in assay [2] (at 0.03 μM), the “CDK2 % Inhibition at 0.03 μM” value is listed as 45%. The “HCT-116 % Inhibition at 0.1 μM” value in assay [3] (HCT-116 cells, at 0.1 μM) is on record as 0%. Further, in assay [3] (HCT-116 cells), the “HCT-116 5 Inhibition at 0.25 μM” value is on record as 29.
